According to US11045456B2, “Compositions and methods for treating COPD and other inflammatory conditions” (Georgia State University Research Foundation, Inc., priority 2015, dated 2021):

What was measured:
Format in all cases: cell-based, human
[1] = tested on: PDE4B; assay: PDE4B mRNA expression (Q-PCR) in BEAS-2B cells stimulated with NTHi; conditions: for PDE4B mRNA expression: BEAS-2B, relative to control
Protocol: Bacterial strains and culture condition. Clinical isolates of NTHi strain 12 were used in this study (Ishinaga et al., EMBO J., 26(4):1150-1162, 2007). Bacteria were grown on chocolate agar plates at 37° C. in an atmosphere of 5% CO2 overnight and subsequently inoculated in brain heart infusion (BHI) broth supplemented with 3.5 μg/mL NAD and hemoglobin (BD Biosciences). After overnight incubation, the bacteria were subcultured into fresh broth and the log phase bacteria, monitored by measurement of optical density (OD) value, were washed and suspended in DMEM for in vitro cell experiments and in isotonic saline for in vivo animal experiments. For all in vitro experiments except the dose dependent experiment, NTHi was treated at multiplicity of infection (MOI) of 50.
Cell culture. All media described below were supplemented with 10% fetal bovine serum (Sigma-Aldrich). Human bronchial epithelial BEAS-2B cells were maintained in RPMI medium (Life Technologies) (ATCC® CRL-9609™). Human primary bronchial epithelial NHBE (Lonza) cells were maintained in bronchial epithelial growth media (BEGM) supplemented with BEGM SingleQuots (Jono et al., J. Biol. Chem. 277(47):45547-45557, 2002). BEAS-2B cells stably expressing human PDE4B2 (PDE4B2-stable cells) were obtained by plasmid transfection following Geneticin selection (300 μg/mL). Cells were cultured in a humidified atmosphere of 5% CO2 at 37° C.

[2] = tested on: PDE4D; assay: Expression of PDE4D in BEAS-2B cells; conditions: NTHi or roflumilast
[3] = tested on: CCL5, CCL7, CXCL10 and CXCL11; assay: NTHi-induced chemokine expression in PDE4B2-stable cells
[4] = tested on: Group A chemokines (CCL5, CCL7, CXCL10, CXCL11); assay: IKKβ-CA-induced Group A-chemokine expression in PDE4B2-transfected cells; conditions: up to 10 μM
Protocol: Plasmids, transfections and luciferase assay. […] Empty vector was used as a control and was also added where necessary to ensure an equivalent amount of input DNA. All transient transfections were carried out in triplicate using TRANSIT-LT1® reagent (Minis) following the manufacturer's instruction.

[5] = tested on: p65 or PKA-Cβ; assay: Nuclear expression level of p65 or PKA-Cβ in BEAS-2B cells
Protocol: Subcellular fractionation. Cells were washed twice and […] with ice cold PBS and centrifuged at 3,000×g for 5 min. The cells were then suspended with Buffer A (10 mM HEPES at pH7.4, 10 mM KCl, 0.1 mM EDTA, 0.1 mM EGTA, 1 mM DTT, supplemented with 1 mM Na3VO4 and PIC) and incubated on ice for 10 min (Schreiber et al., Nucleic Acids Res. 17(15):6419, 1989). The cells were lysed by adding NP40 (0.5%) and vortexing for 15 sec. then centrifuged at 3,000×g for 5 min before the supernatants were removed (cytosol fraction). Precipitates were resuspended in Buffer B (20 mM HEPES at pH7.5, 5 mM NaCl, 1 mM EDTA, […], 1 mM DTT, supplemented with 1 mM Na3VO4 and PIC) and incubated on ice for 10 min. before vortexing and centrifuging at 16,000×g for 15 min to recover the supernatants (nuclear fraction). Western blot. Whole-cell extracts and mouse lung tissue extracts were recovered with lysis buffer (50 mM Tris-HCl at pH7.4, 1% NP40, 0.25% deoxycholate, 150 mM NaCl, 1 mM EDTA, 1 mM NaF, supplemented with 1 mM Na3VO4 and PIC). For PDE4B protein, cell extracts were recovered with Buffer A as described above. Cell or tissue extracts were separated on 8% SDS-PAGE gels and transferred to polyvinylidene difluoride (PVDF) membrane (GE Healthcare Life Sciences). The membrane was blocked with a solution of TBS containing 0.1% Tween 20 (TBS-T) and 5% non-fat dry milk. […]

In the case of `O=C(Nc1c(Cl)cncc1Cl)c1ccc(OC(F)F)c(OCC2CC2)c1` [roflumilast], the “PDE4B expression at the mRNA level” value ([1]; BEAS-2B cells, roflumilast with NTHi, Q-PCR, dose-dependent) is reported as “synergized with NTHi to up-regulate PDE4B expression”, the “PDE4B mRNA expression” value ([1]; Rof 0.1 μM 1 h, then 1.5-hour NTHi at MOI of 25, 50, and 100) is reported as “increased” and the “PDE4B mRNA expression” value ([1]; Rof 0.01, 0.1, and 1 μM 1 h, then 1.5-hour NTHi) is reported as “increased”. For the same molecule, the “expression of PDE4D” value [2] was “up-regulated by NTHi or roflumilast but no significant synergistic effect”, the “NTHi-induced expression of CCL5, CCL7, CXCL10 and CXCL11 (Group A-chemokines)” value ([3]; highest concentration tested (10 μM)) was “unable to fully inhibit” and the “NTHi-induced expression of CXCL10 and CXCL11” value ([3]; lower dose of roflumilast (<1 μM)) was “slightly enhanced”. The “IKKβ-CA-induced Group A-chemokine expression” value ([4]; cells overexpressing PDE4B2-WT or PDE4B2-D392A) was “unable to fully inhibit”, the “IKKβ-CA-induced Group A-chemokine expression” value ([4]; cells transfected with PDE4B2-D392A) was “unable to fully inhibit” and the “nuclear expression level of p65 or PKA-Cβ” value [5] was “did not affect”.
